In one experiment the target is T1, human OX1 receptor (Homo sapiens, UniProt O43613).
T1 sequence (O43613 1-425): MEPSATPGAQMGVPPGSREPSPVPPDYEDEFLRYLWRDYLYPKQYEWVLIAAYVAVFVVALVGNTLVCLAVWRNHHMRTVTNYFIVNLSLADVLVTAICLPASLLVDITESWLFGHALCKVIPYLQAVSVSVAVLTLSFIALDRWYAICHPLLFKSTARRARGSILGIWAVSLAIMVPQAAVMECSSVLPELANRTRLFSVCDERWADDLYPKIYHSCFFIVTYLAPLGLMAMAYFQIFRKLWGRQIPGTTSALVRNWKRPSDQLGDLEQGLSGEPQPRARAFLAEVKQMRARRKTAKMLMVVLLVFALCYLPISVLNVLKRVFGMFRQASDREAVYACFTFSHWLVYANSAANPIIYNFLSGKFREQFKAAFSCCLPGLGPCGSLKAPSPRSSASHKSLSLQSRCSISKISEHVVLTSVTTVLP
Nature of the experiment: FLIPR measurement of intracellular calcium, antagonistic activity at OX1. The settings on record: for selectivity against the OX1 receptor: OX1 versus OX2, from the pKb table; for Kb: pKb OX1, CHO cells with human recombinant OX1, activated with orexin-A 3 nM, 1 nM-1 μM range, modified Cheng Prusoff.

A further experiment deals with T2, human OX2 receptor (Homo sapiens, UniProt O43614).
T2 sequence (O43614 1-444): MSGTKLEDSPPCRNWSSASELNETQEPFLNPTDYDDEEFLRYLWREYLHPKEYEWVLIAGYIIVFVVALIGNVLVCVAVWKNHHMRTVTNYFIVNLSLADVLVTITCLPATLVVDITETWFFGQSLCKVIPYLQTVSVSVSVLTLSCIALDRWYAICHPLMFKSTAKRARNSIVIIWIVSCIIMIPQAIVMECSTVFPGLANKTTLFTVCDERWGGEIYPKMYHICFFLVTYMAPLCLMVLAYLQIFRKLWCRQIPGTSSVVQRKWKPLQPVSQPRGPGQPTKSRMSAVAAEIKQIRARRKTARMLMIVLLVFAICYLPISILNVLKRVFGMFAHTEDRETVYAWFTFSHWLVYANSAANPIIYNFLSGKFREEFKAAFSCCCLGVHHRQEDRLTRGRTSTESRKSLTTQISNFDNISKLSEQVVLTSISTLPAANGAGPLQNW
The experiment in a line: FLIPR measurement of intracellular calcium, antagonistic activity at OX2.

SMILES strings stand for the structures.

Experimental for human OX1 receptor: (§1) Thus the plate was loaded with the calcium dye (Fluo-4NW/probenecid in HBSS, Hepes 20 mM, pH 7,4; Invitrogen) at 37° C. for 60 min. Afterward the temperature was equilibrated at 22° C. for 15 min and the [Ca2+]i measured directly on the plate by using a fluorescent plate reader (CeliLux Perkin Elmer).
(§2) After 5 min CHO cells were activated with orexin-A, 3 nM while HEK-293 cells were activated with orexin-B, 10 nM.
(§3) The antagonistic activity has been expressed as pKb (co-logarithm of the apparent dissociation constant calculated by using the modified Cheng Prusoff equation).
Experimental for human OX2 receptor: as §1, §2, §3

With `Cc1cccc(NCC2CC3(CCN2C(=O)c2nc(C)sc2-c2ccccc2)CC3)n1` (racemic) [Compound 1, (±) (2-methyl-5-phenylthiazol-4-yl)(5-((6-methylpyridin-2-ylamino)methyl)-6-azaspiro[2.5]octan-6-yl)methanone], the “selectivity against the OX1 receptor” value at human OX1 receptor is recorded as “same behaviour”. Further, the Kb on human OX2 receptor is greater than 10000 nM.

As for `Cc1nc(C(=O)N2CCC3(CC3)CC2CNc2ccc(C(F)(F)F)cn2)c(-c2ccccc2)s1` (racemic) [Compound 7, (±) (2-methyl-5-phenylthiazol-4-yl)(5-((5-(trifluoromethyl)pyridin-2-ylamino)methyl)-6-azaspiro[2.5]octan-6-yl)methanone], on human OX1 receptor, the “selectivity against the OX1 receptor” value is reported as “same behaviour” and the Kb was 25.1 nM. Moreover, the Kb at human OX2 receptor was greater than 10000 nM.

As for `O=C(c1ccccc1OCC1CC1)N1CCC2(CC2)CC1CNc1ccc(Cl)cn1` (racemic) [Compound 9, (±) (5-((5-chloropyridin-2-ylamino)methyl)-6-azaspiro[2.5]octan-6-yl)(2-(cyclopropylmethoxy)phenyl)methanone], the Kb is 100 nM at human OX1 receptor and greater than 10000 nM at human OX2 receptor.

Consider `COC(=O)c1cc(Cl)ccc1NCC1CC2(CCN1C(=O)c1nc(C)sc1-c1ccc(F)cc1)CC2` (racemic) [Compound 15, (±)methyl 5-chloro-2-((6-(5-(4-fluorophenyl)-2-methylthiazole-4-carbonyl)-6-azaspiro[2.5]octan-5-yl)methylamino)benzoate], for which the antagonist equilibrium constant (Kb) at human OX1 receptor was 126 nM; at human OX2 receptor it was greater than 10000 nM.

On to `Cc1nc(C(=O)N2CCC3(CC3)CC2CNc2ccc(Cl)cn2)c(-c2ccccc2)s1` (single isomer, unassigned) [Compound 5, (5-((5-chloropyridin-2-ylamino)methyl)-6-azaspiro[2.5]octan-6-yl)(2-methyl-5-phenylthiazol-4-yl)methanone], for which the Kb was 12.6 nM on human OX1 receptor and greater than 1000 nM at human OX2 receptor.

`Cc1nc(C(=O)N2CCC3(CC3)CC2CNc2ccc(C(F)(F)F)cn2)c(-c2ccccc2)s1` (single isomer, unassigned) [Compound 8, (2-methyl-5-phenylthiazol-4-yl)(5-((5-(trifluoromethyl)pyridin-2-ylamino)methyl)-6-azaspiro[2.5]octan-6-yl)methanone]: on human OX1 receptor, the “selectivity against the OX1 receptor” value is listed as “same behaviour” and the Kb was 20 nM. The Kb on human OX2 receptor is greater than 10000 nM.

`Cc1nc(C(=O)N2CCC3(CC3)C[C@H]2CNc2cccc(Cl)n2)c(-c2ccccc2)s1` [Compound 17, (S)-(5-(((6-chloropyridin-2-yl)amino)methyl)-6-azaspiro[2.5]octan-6-yl)(2-methyl-5-phenylthiazol-4-yl)methanone]: the Kb was 31.6 nM on human OX1 receptor and greater than 10000 nM at human OX2 receptor.

As to `Cc1nc(C(=O)N2CCC3(CC3)C[C@H]2CNc2cccc(C(F)(F)F)n2)c(-c2ccccc2)s1` [Compound 18, (S)-(2-methyl-5-phenylthiazol-4-yl)(5-(((6-(trifluoromethyl)pyridin-2-yl)amino)methyl)-6-azaspiro[2.5]octan-6-yl)methanone], the Kb at human OX1 receptor was 50.1 nM; on human OX2 receptor it was greater than 10000 nM.

On to `Cc1cc(C)nc(NC[C@@H]2CC3(CCN2C(=O)c2nc(C)sc2-c2ccccc2)CC3)n1` [Compound 22, (S)-(5-(((4,6-dimethylpyrimidin-2-yl)amino)methyl)-6-azaspiro[2.5]octan-6-yl)(2-methyl-5-phenylthiazol-4-yl)methanone], for which the antagonist equilibrium constant (Kb) is 20 nM at human OX1 receptor and greater than 10000 nM on human OX2 receptor.

Turning to `Cc1cc(C)nc(NC[C@@H]2CC3(CCN2C(=O)c2ccccc2-c2ccccc2)CC3)n1` [Compound 35, (S)-[1,1′-biphenyl]-2-yl(5-(((4,6-dimethylpyrimidin-2-yl)amino)methyl)-6-azaspiro[2.5]octan-6-yl)methanone], the antagonist equilibrium constant (Kb) is 5.01 nM at human OX1 receptor and 79.4 nM on human OX2 receptor.

Regarding `Cc1cc(C)nc(NC[C@@H]2CC3(CCN2C(=O)c2cc(Cl)ccc2Cl)CC3)n1` [Compound 37, (S)-(2,5-dichlorophenyl)(5-(((4,6-dimethylpyrimidin-2-yl)amino)methyl)-6-azaspiro[2.5]octan-6-yl)methanone], the antagonist dissociation constant (Kb) on human OX2 receptor is greater than 10000 nM.

For the molecule `Cc1ccnc(NC[C@@H]2CC3(CCN2C(=O)c2ccccc2-c2ccccc2)CC3)n1` [Compound 39, (S)-[1,1′-biphenyl]-2-yl(5-(((4-methylpyrimidin-2-yl)amino)methyl)-6-azaspiro[2.5]octan-6-yl)methanone], the Kb on human OX1 receptor was 12.6 nM; at human OX2 receptor, greater than 10000 nM.

Regarding `O=C(c1cc(F)ccc1-c1ncccn1)N1CCC2(CC2)C[C@H]1CNc1ccc(Cl)cn1` [Compound 44, (S)-(5-(((5-chloropyridin-2-yl)amino)methyl)-6-azaspiro[2.5]octan-6-yl)(5-fluoro-2-(pyrimidin-2-yl)phenyl)methanone], the antagonist equilibrium constant (Kb) on human OX1 receptor is 15.8 nM.

For `O=C(c1c(F)cccc1-c1ncccn1)N1CCC2(CC2)C[C@H]1CNc1ccc(Cl)cn1` [Compound 45, (S)-(5-(((5-chloropyridin-2-yl)amino)methyl)-6-azaspiro[2.5]octan-6-yl)(2-fluoro-6-(pyrimidin-2-yl)phenyl)methanone], at human OX1 receptor, the Kb was 10 nM.

Take `Cc1ccc(-n2nccn2)c(C(=O)N2CC3(CC3)C[C@H]2CNc2ccc(Cl)cn2)c1` [Compound 49, (S)-(6-(((5-chloropyridin-2-yl)amino)methyl)-5-azaspiro[2.4]heptan-5-yl)(5-methyl-2-(2H-1,2,3-triazol-2-yl)phenyl)methanone]: the antagonist dissociation constant (Kb) on human OX1 receptor was 7.94 nM; on human OX2 receptor it was greater than 10000 nM.

Take `Cc1ccc(-n2nccn2)c(C(=O)N2CC3(CC3)C[C@H]2CNc2cccc(C)n2)c1` [Compound 50, (S)-(5-methyl-2-(2H-1,2,3-triazol-2-yl)phenyl)(6-(((6-methylpyridin-2-yl)amino)methyl)-5-azaspiro[2.4]heptan-5-yl)methanone]: the Kb at human OX1 receptor was 79.4 nM; at human OX2 receptor, greater than 10000 nM.

Consider `Cc1ccc(-c2ncccn2)c(C(=O)N2CC3(CC3)C[C@H]2CNc2ccc(Cl)cn2)c1` [Compound 51, (S)-(6-(((5-chloropyridin-2-yl)amino)methyl)-5-azaspiro[2.4]heptan-5-yl)(5-methyl-2-(pyrimidin-2-yl)phenyl)methanone], for which the Kb is 6.31 nM on human OX1 receptor and greater than 10000 nM at human OX2 receptor.

With `Cc1cccc(NCC2CCCCN2C(=O)c2ccccc2-c2ccccc2)n1` (stereo not shown) [comparison 1, reference compound], the Kb at human OX1 receptor was 126 nM; at human OX2 receptor it was 31.6 nM.

With `Cc1nc(C(=O)N2CCCCC2CNc2ccc(Cl)cn2)c(-c2ccccc2)s1` (stereo not shown) [comparison 2, reference compound], the Kb on human OX1 receptor was 10 nM; at human OX2 receptor it was 25.1 nM.

Turning to `Cc1cccc(NCC2CCCCN2C(=O)c2nc(C)sc2-c2ccccc2)n1` (stereo not shown) [comparison 3, reference compound], the antagonist dissociation constant (Kb) on human OX1 receptor is 1 nM; on human OX2 receptor, 3.16 nM.

Turning to `O=C(c1ccccc1OCC1CC1)N1CCCCC1CNc1ccc(Cl)cn1` (stereo not shown) [comparison 4, reference compound], the antagonist dissociation constant (Kb) at human OX1 receptor was 3.16 nM; at human OX2 receptor, 158 nM.

As to `Cc1cccc(NCC2CCCCN2C(=O)c2nc(C)sc2-c2ccc(F)cc2)n1` (stereo not shown) [comparison 5, reference compound], the values for the Kb at human OX1 receptor and on human OX2 receptor were 3.16 nM and 3.98 nM, respectively.

Values taken from US8859608B2, “Spiro amino compounds suitable for the treatment of inter alia sleep disorders and drug addiction” (Rottapharm Biotech S.R.L., priority 2009, dated 2014).
